The source of these data is US8324133B2, “Fungicide 2-pyridyl-methylene-carboxamide derivatives” (Bayer Cropscience AG, priority 2005, dated 2012).

This series in a line: logP by HPLC on reversed-phase column (C 18), EEC Directive 79/831 Annex V.A8. The class given is physicochemical. The following applies: C 18, 40° C., 0.1% aqueous formic acid and acetonitrile gradient. Here is the method:
Temperature: 40° C.; Mobile phases: 0.1% aqueous formic acid and acetonitrile; linear gradient from 10% acetonitrile to 90% acetonitrile.
Calibration was carried out using unbranched alkan-2-ones (comprising 3 to 16 carbon atoms) with known logP values (determination of the logP values by the retention times using linear interpolation between two successive alkanones).
What is called LogP is the decadic logarithm of the partition coefficient of the neutral form, usually between octanol and water. Read a low LogP as a more hydrophilic compound. Take `O=C(c1ccco1)N(Cc1ncc(C(F)(F)F)cc1Cl)C1CC1` [Compound 1]: the log partition coefficient (LogP) worked out at 3.2.
Then `CC(c1ncc(C(F)(F)F)cc1Cl)N(C(=O)c1ccco1)C1CC1` (centres unmarked) [Compound 2], with 3.6.
The value for `Cc1ccoc1C(=O)N(Cc1ncc(C(F)(F)F)cc1Cl)C1CC1` [Compound 3] was 3.78.
Consider `Cc1ccoc1C(=O)N(C1CC1)C(C)c1ncc(C(F)(F)F)cc1Cl` (centres unmarked) [Compound 4], for which the LogP came out at 4.22.
Then `Cc1cc(C(=O)N(Cc2ncc(C(F)(F)F)cc2Cl)C2CC2)c(C(F)(F)F)o1` [Compound 6], with 4.26; and `Cc1cc(C(=O)N(C2CC2)C(C)c2ncc(C(F)(F)F)cc2Cl)c(C(F)(F)F)o1` (centres unmarked) [Compound 7], with 5.19.
The value for `Cc1occc1C(=O)N(Cc1ncc(C(F)(F)F)cc1Cl)C1CC1` [Compound 8] was 3.
Turning to `CC(c1ncc(C(F)(F)F)cc1Cl)N(C(=O)c1sccc1I)C1CC1` (centres unmarked) [Compound 12], the lipophilicity (LogP) was 5.09.
Then `O=C(c1ccsc1I)N(Cc1ncc(C(F)(F)F)cc1Cl)C1CC1` [Compound 15], with 4.17; and `CC(c1ncc(C(F)(F)F)cc1Cl)N(C(=O)c1ccsc1I)C1CC1` (centres unmarked) [Compound 16], with 4.95; and `Cn1cc(C(=O)N(Cc2ncc(C(F)(F)F)cc2Cl)C2CC2)c(C(F)(F)F)c1` [Compound 17], with 3.55.
Then `Cc1ncoc1C(=O)N(Cc1ncc(C(F)(F)F)cc1Cl)C1CC1` [Compound 20], with 2.85; and `Cc1ncoc1C(=O)N(C1CC1)C(C)c1ncc(C(F)(F)F)cc1Cl` (centres unmarked) [Compound 21], with 3.22; and `Cc1nc(C(=O)N(Cc2ncc(C(F)(F)F)cc2Cl)C2CC2)c(C)o1` [Compound 22], with 3.11.
`Cc1nc(C(=O)N(C2CC2)C(C)c2ncc(C(F)(F)F)cc2Cl)c(C)o1` (centres unmarked) [Compound 23] displayed a LogP of 3.46.
Then `Cc1nc(C(F)(F)F)c(C(=O)N(Cc2ncc(C(F)(F)F)cc2Cl)C2CC2)s1` [Compound 25], with 3.86; and `Cc1nc(C(F)F)c(C(=O)N(Cc2ncc(C(F)(F)F)cc2Cl)C2CC2)s1` [Compound 26], with 3.41.
As for `Cc1nc(C(F)F)c(C(=O)N(C2CC2)C(C)c2ncc(C(F)(F)F)cc2Cl)s1` (centres unmarked) [Compound 27], the LogP came to 4.34.
The value for `Cc1ncc(C(=O)N(Cc2ncc(C(F)(F)F)cc2Cl)C2CC2)s1` [Compound 29] was 3.15; that for `Cc1nc(C(F)(F)F)c(C(=O)N(C2CC2)C(C)c2ncc(C(F)(F)F)cc2Cl)s1` (centres unmarked) [Compound 30] was 4.80; that for `Cc1cc(C(=O)N(C2CC2)C(C)c2ncc(C(F)(F)F)cc2Cl)nn1C` (centres unmarked) [Compound 33] was 3.15.
The value for `CC(c1ncc(C(F)(F)F)cc1Cl)N(C(=O)c1cn(C)nc1C(F)F)C1CC1` (centres unmarked) [Compound 35] was 3.78; that for `Cn1cc(C(=O)N(Cc2cc(C(F)(F)F)cc(Cl)n2)C2CC2)c(C(F)F)n1` [Compound 37] was 3.1.
With `COc1nn(C)cc1C(=O)N(Cc1ncc(C(F)(F)F)cc1Cl)C1CC1` [Compound 39], the LogP amounted to 2.43.
Compound `Cn1cc(C(=O)N(Cc2ncc(C(F)(F)F)cc2Cl)C2CC2)c(C(F)(F)F)n1` [Compound 41] showed a LogP of 3.26.
Then `CC(c1ncc(C(F)(F)F)cc1Cl)N(C(=O)c1cn(C)nc1C(F)(F)F)C1CC1` (centres unmarked) [Compound 42], with 4.01; and `Cn1cc(C(=O)N(Cc2ncc(C(F)(F)F)cc2Cl)C2CC2)c(I)n1` [Compound 43], with 2.82; and `Cc1nn(C)c(F)c1C(=O)N(C1CC1)C(C)c1ncc(C(F)(F)F)cc1Cl` (centres unmarked) [Compound 46], with 3.67.
`CCC(c1cc(C(F)(F)F)cc(Cl)n1)N(C(=O)c1c(C)nn(C)c1F)C1CC1` (centres unmarked) [Compound 47] returned a LogP of 2.95.
The value for `COC(=O)C(c1ncc(C(F)(F)F)cc1Cl)N(C(=O)c1c(C)nn(C)c1F)C1CC1` (centres unmarked) [Compound 48] was 2.83.
Then `Cc1nn(C)cc1C(=O)N(Cc1ncc(C(F)(F)F)cc1Cl)C1CC1` [Compound 55], with 2.53; and `Cc1nn(C)cc1C(=O)N(C1CC1)C(C)c1ncc(C(F)(F)F)cc1Cl` (centres unmarked) [Compound 56], with 2.79; and `Cn1ncc(C(=O)N(Cc2ncc(C(F)(F)F)cc2Cl)C2CC2)c1Cl` [Compound 57], with 3.92.
As for `CCn1nc(C)c(C(=O)N(Cc2ncc(C(F)(F)F)cc2Cl)C2CC2)c1F` [Compound 58], the LogP is listed as 3.15.
The value for `CCc1nn(C)c(F)c1C(=O)N(Cc1ncc(C(F)(F)F)cc1Cl)C1CC1` [Compound 59] was 3.11; that for `CCOc1nn(C)cc1C(=O)N(Cc1ncc(C(F)(F)F)cc1Cl)C1CC1` [Compound 60] was 2.75.
`O=C(c1ccnn1-c1ccccc1)N(Cc1ncc(C(F)(F)F)cc1Cl)C1CC1` [Compound 63] gave a log partition coefficient (LogP) of 3.55.
The value for `Cc1cc(C(=O)N(Cc2ncc(C(F)(F)F)cc2Cl)C2CC2)no1` [Compound 64] was 3.32; that for `Cc1cc(C(=O)N(C2CC2)C(C)c2ncc(C(F)(F)F)cc2Cl)no1` (centres unmarked) [Compound 65] was 3.63; that for `Cc1noc(C)c1C(=O)N(Cc1ncc(C(F)(F)F)cc1Cl)C1CC1` [Compound 68] was 3.
The value for `Cc1onc(-c2ccc(Cl)cc2)c1C(=O)N(Cc1ncc(C(F)(F)F)cc1Cl)C1CC1` [Compound 69] was 4.48; that for `O=C(c1ccno1)N(Cc1ncc(C(F)(F)F)cc1Cl)C1CC1` [Compound 71] was 3.72.
Then `Cn1cc(C(=O)N(Cc2ncc(C(F)(F)F)cc2Cl)C2CCCC2)c(C(F)F)n1` [Compound 79], with 3.68.
On to `COc1nn(C)cc1C(=O)N(Cc1ncc(C(F)(F)F)cc1Cl)C1CCCC1` [Compound 80], for which the LogP came to 3.32.
In the case of `Cc1nc(C(F)F)c(C(=O)N(Cc2ncc(C(F)(F)F)cc2Cl)C2CCCC2)s1` [Compound 81], the LogP was 4.25.
For `Cn1cc(C(=O)N(Cc2ncc(C(F)(F)F)cc2Cl)C2CCCC2)c(C(F)(F)F)c1` [Compound 82], the log partition coefficient (LogP) worked out at 4.15.
Then `Cc1cc(C(=O)N(Cc2ncc(C(F)(F)F)cc2Cl)C2CC(C)CC(C)(C)C2)c(C)o1` (centres unmarked) [Compound 83], with 5.9.
